Measurements from US9499493B2, “2,4-pyrimidinediamine compounds and their uses” (Rigel Pharmaceuticals, Inc., priority 2002, dated 2016).
pIC50: −log10 of the molar value.

Legend:
[1] = test system: cultured human mast cells (CHMC); assay: CHMC low cell density ionomycin activation: tryptase assay; assay type: cell-based
[2] = test system: cultured human mast cells (CHMC); assay: CHMC low cell density IgE activation: tryptase assay; assay type: cell-based; settings: anti-IgE
In short: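 Degranulation was triggered with anti-IgE for 30 minutes at 37° C in cultured human mast cells seeded at low density (1000-1500 cells/well, chosen by donor) after a 1 hr equilibration in MT buffer. Released tryptase in cleared supernatant was quantified with a tryptase substrate at room temperature for 30 minutes.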

Structure (SMILES) | pIC50 [1] | pIC50 [2]
NC(=O)CNc1cccc(Nc2ncc(F)c(Nc3ccc4c(c3)OCCO4)n2)c1 [R950192, N2-[3-(N-Amino)carbonylmethyleneaminophenyl]-N4-(3,4-ethylenedioxyphenyl)-5-fluoro-2,4-pyrimidinediamine] | < 5.00 | 6.61
CN1CCN(C(=O)CNc2cccc(Nc3ncc(F)c(Nc4ccc5c(c4)OCCO5)n3)c2)CC1 [R950194, N4-(3,4-Ethylenedioxyphenyl)-5-fluoro-N2-[3-(N—(N-methyl)-piperazino)carbonylmethyleneaminophenyl]-2,4-pyrimidinediamine] | < 5.00 | 5.69
COC(=O)COc1cccc(Nc2ncc(F)c(Nc3ccc4c(c3)OCCCO4)n2)c1 [R935185, 5-Fluoro-N2-[3-(methoxycarbonylmethyleneoxy)phenyl]-N4-(3,4-propylenedioxyphenyl)-2,4-pyrimidinediamine] | 5.18 | 6.45
Cc1ccc(-c2ccccc2)cc1Nc1ncc(C)c(Nc2cc(-c3ccccc3)ccc2C)n1 [R935001, N2,N4-Bis[(2-methyl-5-phenyl)phenyl]-5-methyl-2,4-pyrimidinediamine] | < 5.00 | < 5.00
OCCOc1ccc(Nc2ncc(F)c(Nc3ccc4c(c3)OCCCO4)n2)cc1 [R935183, 5-Fluoro-N2-[4-(2-hydroxyethoxy)phenyl]-N4-(3,4-propylenedioxyphenyl)-2,4-pyrimidinediamine] | < 5.00 | 6.14
COc1cc(Nc2ncc(F)c(Nc3ccc4c(cnn4C)c3)n2)cc(OC)c1 [R935214, 5-Fluoro-N2-(3,5-dimethoxyphenyl)-N4-(1-methyl-indazoline-5-yl)-2,4-pyrimidinediamine] | 5.26 | 6.34
CN1CCN(C(=O)CNc2cccc(Nc3ncc(F)c(Nc4cccc(O)c4)n3)c2)CC1 [R950223, 5-Fluoro-N4-(3-hydroxyphenyl)-N2-[3-[N—(N-methyl)piperazino]carbonylmethyleneaminophenyl]-2,4-pyrimidinediamine] | < 5.00 | 6.12
CCOc1ccc(Nc2nc(Nc3ccc4c(c3)OCCO4)ncc2F)cc1 [R920670, N4-(4-ethyloxyphenyl)-N2-(3,4-ethylenedioxyphenyl)-5-fluoro-2,4-pyrimidinediamine] | < 5.00 | 5.66
Fc1cnc(Nc2ccc3[nH]ncc3c2)nc1Nc1cccc(OC(F)(F)F)c1 [R935364, 5-Fluoro-N2-(indazoline-5-yl)-N4-(3-trifluoromethoxyphenyl)-2,4-pyrimidinediamine] | < 5.00 | 6.25
COC(=O)Cn1ncc2ccc(Nc3nc(Nc4ccc5c(c4)OCCO5)ncc3F)cc21 [R935219, N2-(3,4-Ethylenedioxyphenyl)-5-fluoro-N4-[1-(methoxycarbonyl)methyl-indazoline-6-yl]-2,4-pyrimidinediamine] | < 5.00 | 5.27
COc1c(C)cc(Nc2nc(Nc3cccc(OCC(=O)N4CCNCC4)c3)ncc2F)cc1C [R945156, N4-(3,5-Dimethyl-4-methoxyphenyl)-5-fluoro-N2-[3-(N-piperazino)carbonylmethyleneoxyphenyl]-2,4-pyrimidinediamine] | < 5.00 | 6.10
O=C(CNc1cccc(Nc2ncc(F)c(Nc3cccc(NCCO)c3)n2)c1)NCCNCc1ccccc1 [R950235, N2-[3-[N-(2-N-Benzylamino)ethylamino]carbonylmethyleneaminophenyl]-5-fluoro-N4-[3-(2-hydroxyethylamino)phenyl]-2,4-pyrimidinediamine] | < 5.00 | 5.39
Cc1cnc(Nc2ccc(OCc3nnn[nH]3)cc2)nc1Nc1cccc(O)c1 [R920820, N4-(3-Hydroxyphenyl)-5-methyl-N2-[4-(1H,1,2,3,4-tetrazol-5-yl)methyleneoxyphenyl]-2,4-pyrimidinediamine] | < 5.00 | < 5.00
Fc1cnc(Cl)nc1Nc1cccc(-c2nnn[nH]2)c1 [Compound R926853] | < 5.00 | < 5.00
Cn1nnnc1COc1ccc(Nc2ncc(F)c(Nc3ccc(OCc4nnnn4C)cc3)n2)cc1 [R945048, N2,N4-Bis[4-(1-methyl-1,2,3,4-tetrazol-5-yl)methyleneoxyphenyl]-5-fluoro-2,4-pyrimidinediamine] | < 5.00 | 6.12
COC(=O)Cn1ncc2ccc(Nc3ncc(F)c(Nc4ccc5c(c4)OCCO5)n3)cc21 [R935208, N4-(3,4-ethylenedioxyphenyl)-5-fluoro-N2-[1-(methoxycarbonyl)methyl-indazoline-6-yl]-2,4-pyrimidinediamine] | < 5.00 | 5.89
CNC(=O)COc1ccc(Nc2ncc(F)c(Nc3cccc(O)c3)n2)cc1 [R945170, 5-Fluoro-N4-(3-hydroxyphenyl)-N2-[4-(N-methylamino)carbonylmethyleneoxyphenyl]-2,4-pyrimidinediamine] | < 5.00 | 6.18
COC(=O)COc1ccc(Nc2nc(Nc3ccc(OCC(N)=O)cc3)ncc2F)cc1 [R945060, N2-(4-Aminocarbonylmethyleneoxyphenyl)-5-fluoro-N4-(4-methoxycarbonylmethyleneoxyphenyl)-2,4-pyrimidinediamine] | < 5.00 | 6.03

Structure (SMILES) | pIC50 [1] | pIC50 [2]
O=C(CNc1cccc(Nc2ncc(F)c(Nc3ccc4c(c3)OCCO4)n2)c1)N1CCNCC1 [R950197, N4-(3,4-Ethylenedioxyphenyl)-5-fluoro-N2-[3-(N-piperazino)carbonylmethyleneaminophenyl]-5-fluoro-2,4-pyrimidinediamine] | < 5.00 | 6.27
CCOC(=O)CCn1ncc2cc(Nc3ncc(F)c(Nc4cccc(OC(F)(F)F)c4)n3)ccc21 [R935360, N2-[1-(2-Ethoxycarbonylethyl)indazoline-5-yl]-5-fluoro-N4-(3-trifluoromethoxyphenyl)-2,4-pyrimidinediamine] | < 5.00 | 6.04
Nc1cccc(Nc2nc(Nc3cccc(Nc4ncc(F)c(Nc5cccc(N)c5)n4)c3)ncc2F)c1 [R950137, N4-(3-Aminophenyl)-N2-[[N3-[N4-(3-aminophenyl)]-5-fluoro-2,4-pyrimidinediamine]aminophenyl]-5-fluoro-2,4-pyrimidinediamine] | < 5.00 | 5.65
Cn1cc2cc(Nc3ncc(F)c(Nc4ccc5c(c4)OCCO5)n3)ccc2n1 [R935300, N4-(3,4-Ethyelenedioxyphenyl)-5-fluoro-N2-(2-methy-indazoline-5-yl)-2,4-pyrimidinediamine] | < 5.00 | 6.61
O=C(COc1ccc(Nc2nc(Nc3cccc(O)c3)ncc2Br)cc1)NCC1CC1 [R925842] | < 5.00 | 5.14
O=C(COc1ccc(Nc2ncc(F)c(Nc3ccc4c(c3)OCCO4)n2)cc1)NCCO [R909239, N4-(3,4-Ethylendioxyphenyl)-5-fluoro-N2-[4-(N-2-hydroxyethylamino)carbonylmethyleneoxyphenyl]-2,4-pyrimidinediamine] | < 5.00 | 6.58
Cc1ccc(Nc2ncc(F)c(Nc3ccc(C)c(O)c3)n2)cc1O [R926341, N2,N4-Bis(-3-hydroxy-4-methylphenyl)-5-fluoro-2,4-pyrimidinediaminediamine] | < 5.00 | 6.06
CNCc1cccc(Nc2nc(Nc3cccc(OCC(=O)NC)c3)ncc2F)c1 [R940317, N4-(3-N-methylaminomethylenephenyl)-5-fluoro-N2-[3-(methylaminocarbonylmethyleneoxy)phenyl]-2,4-pyrimidinediamine] | < 5.00 | 6.04
CC1(C)COC(COc2ccc(Nc3ncc(F)c(Nc4cccc(O)c4)n3)cc2)=N1 [R926702, 5-Fluoro-N4-(3-hydroxyphenyl)-N2-[4-[(4,4-dimethyl-3-oxazolin-2-yl)methyleneoxy]phenyl]-2,4-pyrimidinediamine] | < 5.00 | 6.05
Oc1cccc(Nc2ncc(F)c(Nc3ccc4c(c3)OC(F)(F)O4)n2)c1 [R926794, N4-(3,4-Difluoromethylenedioxyphenyl)-5-fluoro-N2-(3-hydroxyphenyl)-2,4-pyrimidinediamine] | < 5.00 | 5.86
CS(=O)(=O)Nc1cccc(Nc2ncc(F)c(Nc3cccc(NS(C)(=O)=O)c3)n2)c1 [R950100] | < 5.00 | 6.15
CC(C)Oc1ccc(Nc2nc(Nc3ccc(OCc4nc(-c5ccccc5)no4)cc3)ncc2F)cc1 [R935135, 5-Fluoro-N4-(4-isopropoxyphenyl)-N2-[4-(3-phenyl-1,2,4-oxadiazol-5-yl)methyleneoxyphenyl]-2,4-pyrimidinediamine] | < 5.00 | 5.00
ON=C(c1ccccc1)c1cccc(Nc2ncc(F)c(Nc3cccc(C(=NO)c4ccccc4)c3)n2)c1 [R950380, N2,N4-Bis(3-phenylcarbonyloximephenyl)-5-fluoro-2,4-pyrimidinediamine] | < 5.00 | 5.52
CC1(C)Oc2ccc(Nc3nc(Nc4ccc5c(c4)NC(=O)C(F)(F)O5)ncc3F)cc2NC1=O [R940351, N2-[(2,2-Difluoro-4H-benzo[1,4]oxazin-3-one)-6-yl]-N4-[(2,2-dimethyl-4H-benzo[1,4]oxazin-3-one)-6-yl]-5-fluoro-2,4-pyrimidinediamine] | 5.57 | 6.92
COC(=O)COc1ccc(Nc2ncc(F)c(Nc3ccc(OCC(=O)OC(C)(C)C)cc3)n2)cc1 [R926572] | 5.22 | 5.74
Cc1nc(COc2cccc(Nc3nc(Nc4ccc(OCC(N)=O)cc4)ncc3F)c2)no1 [R945133, N2-[4-(Aminocarbonylmethoxy)phenyl]-5-fluoro-N4-[3-(5-methyl-1,2,4-oxadiazol-3-yl)methyleneoxyphenyl]-2,4-pyrimidinediamine] | < 5.00 | 5.97
Oc1cccc(Nc2nc(Nc3ccc(OCc4nc(-c5ccccc5)no4)cc3)ncc2F)c1 [R935134, 5-Fluoro-N4-(3-hydroxyphenyl)-N2-[4-(3-phenyl-1,2,4-oxadiazol-5-yl)methyleneoxyphenyl]-2,4-pyrimidinediamine] | 5.74 | 6.04
